# According to US20230382924A1, “MODULATORS OF CYSTIC FIBROSIS TRANSMEMBRANE CONDUCTANCE REGULATOR” (VERTEX PHARMACEUTICALS INCORPORATED, priority 2020, published 2023):
# Where two headings read alike, the source gives them in different places.
# Target: CFTR (Homo sapiens, UniProt P13569)
# Test: Membrane Potential Dye, Enteroid Assay A
# Assay type: cell-based
# Conditions: for EC50: read-out: Ent. A EC50
# In short: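 Enteroid cells were loaded with methyl oxonol membrane potential dye (plus CaCCinh-A01 and Chicago Sky Blue) for 25 min at room temperature. Chloride transport was started by switching to chloride-free gluconate stimulation solution, with fluorescence read for 15 min. Activity was expressed as % of a triple-combination CFTR modulator control (3 μM, 3 μM, 300 nM acute).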
# Sequence of CFTR (P13569 with tags, fused parts or gaps DEL508-508): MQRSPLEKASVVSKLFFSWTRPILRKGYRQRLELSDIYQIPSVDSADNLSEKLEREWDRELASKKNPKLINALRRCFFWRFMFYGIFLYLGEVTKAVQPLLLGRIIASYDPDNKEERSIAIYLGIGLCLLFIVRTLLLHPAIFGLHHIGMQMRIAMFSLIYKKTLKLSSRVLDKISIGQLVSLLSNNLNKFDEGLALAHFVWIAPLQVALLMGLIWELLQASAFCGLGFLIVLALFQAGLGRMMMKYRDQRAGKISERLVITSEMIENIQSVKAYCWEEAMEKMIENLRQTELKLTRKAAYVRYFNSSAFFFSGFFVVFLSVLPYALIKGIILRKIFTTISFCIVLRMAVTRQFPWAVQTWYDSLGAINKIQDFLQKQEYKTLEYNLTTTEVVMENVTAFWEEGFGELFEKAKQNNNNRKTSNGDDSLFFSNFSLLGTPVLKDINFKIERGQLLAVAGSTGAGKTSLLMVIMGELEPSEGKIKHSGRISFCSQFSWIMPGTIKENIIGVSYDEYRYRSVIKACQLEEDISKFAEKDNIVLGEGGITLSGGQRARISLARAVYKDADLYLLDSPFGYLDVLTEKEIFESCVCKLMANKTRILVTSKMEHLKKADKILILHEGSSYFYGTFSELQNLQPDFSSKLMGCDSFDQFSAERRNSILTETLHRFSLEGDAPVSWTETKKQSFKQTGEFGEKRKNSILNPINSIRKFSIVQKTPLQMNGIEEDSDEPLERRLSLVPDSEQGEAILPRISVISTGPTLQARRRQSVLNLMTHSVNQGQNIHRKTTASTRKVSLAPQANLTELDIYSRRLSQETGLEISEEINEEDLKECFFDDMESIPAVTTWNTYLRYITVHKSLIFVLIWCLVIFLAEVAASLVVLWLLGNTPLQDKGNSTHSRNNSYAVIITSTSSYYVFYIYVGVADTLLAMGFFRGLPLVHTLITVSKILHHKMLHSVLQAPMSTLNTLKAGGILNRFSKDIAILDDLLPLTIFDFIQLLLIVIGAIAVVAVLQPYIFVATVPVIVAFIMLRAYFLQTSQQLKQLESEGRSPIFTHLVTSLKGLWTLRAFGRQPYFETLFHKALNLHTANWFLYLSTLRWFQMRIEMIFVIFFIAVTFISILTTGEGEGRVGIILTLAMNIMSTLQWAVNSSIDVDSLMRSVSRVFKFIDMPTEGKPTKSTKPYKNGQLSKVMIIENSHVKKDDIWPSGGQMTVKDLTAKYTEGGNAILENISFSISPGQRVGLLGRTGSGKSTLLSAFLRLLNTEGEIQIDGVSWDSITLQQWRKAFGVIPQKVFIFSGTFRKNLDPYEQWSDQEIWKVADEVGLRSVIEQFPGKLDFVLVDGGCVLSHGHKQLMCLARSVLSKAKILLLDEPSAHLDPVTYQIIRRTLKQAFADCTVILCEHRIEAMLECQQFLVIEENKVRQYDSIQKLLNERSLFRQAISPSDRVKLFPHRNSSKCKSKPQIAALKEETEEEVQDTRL
Compound,Ent. A Max Activity (Table 8),EC50 (Table 8),Ent. A Max Activity (Enteroid Assay A),EC50 (Enteroid Assay A),other results
CC(C)C[C@@H]1COc2cc(C3CCOCC3)nc(n2)NS(=O)(=O)c2cccc(c2)C(=O)N1 [Compound 314],+ (+ is <30%),3 to 30 µM,,,
Cc1cccc(C)c1-c1cc2nc(n1)NS(=O)(=O)c1cccc(c1)C(=O)NCC(CN1CCCCC1)O2 (stereo not drawn) [Compound 410],,3 to 30 µM,,,
Cc1cccc(C)c1-c1cc2nc(n1)NS(=O)(=O)c1cccc(c1)C(=O)NCC1(CCN(C[C@H]3COC(C)(C)N3C(=O)OC(C)(C)C)CC1)CO2 [Compound 439],,,++ (++ is 30-60%),3 to 30 µM,
Cc1cccc(C)c1-c1cc2nc(n1)NS(=O)(=O)c1cccc(c1)C(=O)NC(C)(C)CO2 [Compound 348],,,+++ (+++ is >600%),3 to 30 µM,
Cc1cccc(C)c1-c1cc2nc(n1)NS(=O)(=O)c1cccc(c1)C(=O)NC(CC1CCCC1)CO2 (stereo not drawn) [Compound 188],+++ (+++ is >60%),< 1 µM,,,
Cc1cccc(C)c1-c1cc2nc(n1)NS(=O)(=O)c1cccc(c1)C(=O)NC(C)(CC(C)C)CO2 (stereo not drawn) [Compound 176],,,,,Ent. A Max Activity (Table 9): +++ (+++ is >60%); EC50 (Table 9): < 1 µM
Cc1cccc(C)c1-c1cc2nc(n1)NS(=O)(=O)c1cccc(c1)C(=O)NCC1(CCN(C(=O)c3c(C)c4ccccc4n3C)CC1)CO2 [Compound 455],,,++ (++ is 30-60%),1 to 3 µM,
"CC(C)CCc1ccccc1-c1cc2nc(n1)NS(=O)(=O)c1cccc(c1)C(=O)N[C@H](CC(C)C)CO2 [Compound 104, (11R)-6-[2-(3-Methylbutyl)phenyl]-11-(2-methylpropyl)-9-oxa-2λ^6-thia-3,5,12,19-tetraazatricyclo[12.3.1.14,8]nonadeca-1(17),4,6,8(19),14(18),15-hexaene-2,2,13-trione]",,,++ (++ is 30-60%),< 1 µM,
Cc1cccc(C)c1-c1cc2nc(n1)NS(=O)(=O)c1cccc(c1)C(=O)NC[C@@H](CC(C)C)O2 [Compound 254],+ (+ is <30%),,,,
Cc1cccc(C)c1-c1cc2nc(n1)NS(=O)(=O)c1cccc(c1)C(=O)NCC(c1cccc(C#N)c1)O2 (stereo not drawn) [Compound 252],,3 to 30 µM,,,
Cc1cccc(Cc2ccccc2)c1-c1cc2nc(n1)NS(=O)(=O)c1cccc(c1)C(=O)N[C@H](CC(C)C)CO2 [Compound 168],,,,,Ent. A Max Activity (Table 9): +++ (+++ is >60%); EC50 (Table 9): < 1 µM
Cc1cccc(C)c1-c1cc2nc(n1)NS(=O)(=O)c1cccc(c1)C(=O)N[C@H](CCC(F)(F)F)CO2 (stereo in doubt) [Compound 190],+++ (+++ is >60%),< 1 µM,,,
Cc1cccc(C)c1-c1cc2nc(n1)NS(=O)(=O)c1cccc(c1)C(=O)N[C@@H]1Cc3ccccc3[C@@H]1O2 (stereo in doubt) [Compound 246],+++ (+++ is >60%),< 1 µM,,,
CC(C)C[C@@H]1COc2cc(-n3ccc(C(F)(F)F)n3)nc(n2)NS(=O)(=O)c2cccc(c2)C(=O)N1 [Compound 308],+ (+ is <30%),,,,
"Cc1cccc(C)c1-c1cc2nc(n1)NS(=O)(=O)c1cccc(c1)C(=O)N[C@H](C(C)C)CO2 [Compound 112, (11R)-6-(2,6-Dimethylphenyl)-11-(propan-2-yl)-9-oxa-2λ^6-thia-3,5,12,19-tetraazatricyclo[12.3.1.14,8]nonadeca-1(17),4,6,8(19),14(18),15-hexaene-2,2,13-trione]",,,+++ (+++ is >600%),< 1 µM,
"Cc1cccc(C)c1-c1cc2nc(n1)NS(=O)(=O)c1cccc(c1)C(=O)N[C@@H]1CCN(C(=O)OC(C)(C)C)C[C@H]1O2 (single isomer, unassigned) [Compound 87, tert-butyl 20-(2,6-dimethylphenyl)-10,16,16-trioxo-2-oxa-16λ^6-thia-5,9,17,19,22-pentaazatetracyclo[16.3.1.111,15.03,8]tricosa-1(21),11(23),12,14,18(22),19-hexaene-5-carboxylate]",,,,,Ent. A Max Activity (Table 9): +++ (+++ is >60%); EC50 (Table 9): 1 to 3 µM
Cc1cccc(C)c1-c1cc2nc(n1)NS(=O)(=O)c1cccc(c1)C(=O)NC[C@H](Cc1ccccc1)O2 [Compound 346],,,++ (++ is 30-60%),< 1 µM,
CC(C)C[C@@H]1COc2cc(C3CCCCO3)nc(n2)NS(=O)(=O)c2cccc(c2)C(=O)N1 (stereo partly drawn) [Compound 313],,3 to 30 µM,,,
CC(C)C[C@@H]1COc2cc(C3C(C)CCCC3C)nc(n2)NS(=O)(=O)c2cccc(c2)C(=O)N1 (stereo partly drawn) [Compound 300],,< 1 µM,,,
Cc1cccc(C)c1-c1cc2nc(n1)NS(=O)(=O)c1cccc(c1)C(=O)NCC1(CCN(CCOCc3ccccc3)CC1)CO2 [Compound 445],,,++ (++ is 30-60%),3 to 30 µM,
Cc1cccc(C)c1-c1cc2nc(n1)NS(=O)(=O)c1cccc(c1)C(=O)N[C@H](C)[C@H](c1ccc(C(C)(C)C)cc1)O2 [Compound 134],+ (+ is <30%),< 1 µM,,,
CC(C)C[C@@H]1COc2cc(-c3cc(C(F)(F)F)nn3C)nc(n2)NS(=O)(=O)c2cccc(c2)C(=O)N1 [Compound 338],,,,3 to 30 µM,
Cc1cccc(C)c1-c1cc2nc(n1)NS(=O)(=O)c1cccc(c1)C(=O)NCC(C#CC(C)(C)C)O2 (stereo not drawn) [Compound 297],,,,,Ent. A Max Activity (Table 9): ++ (++ is 30-60%); EC50 (Table 9): < 1 µM
Cc1cccc(C)c1-c1cc2nc(n1)NS(=O)(=O)c1cccc(c1)C(=O)N[C@@H](CC1CCC1)[C@@H](c1ccc(C(C)(C)C)cc1)O2 (stereo in doubt) [Compound 229],+++ (+++ is >60%),< 1 µM,,,
"Cc1cccc(C)c1-c1cc2nc(n1)NS(=O)(=O)c1cccc(c1)C(=O)NCC1(CCN(C(=O)c3cc4ccc(OC(F)(F)F)cc4[nH]3)CC1)CO2 [Compound 84, 6-(2,6-Dimethylphenyl)-2,2-dioxo-1′-[6-(trifluoromethoxy)-1H-indole-2-carbonyl]spiro[9-oxa-2λ^6-thia-3,5,13,20-tetrazatricyclo[13.3.1.14,8]icosa-1(19),4(20),5,7,15,17-hexaene-11,4′-piperidine]-14-one]",,,++ (++ is 30-60%),< 1 µM,
Cc1cccc(C)c1-c1cc2nc(n1)NS(=O)(=O)c1cccc(c1)C(=O)NC[C@@H](c1ccccn1)O2 [Compound 232],+ (+ is <30%),,,,
COC(=O)c1cc(CN2CCC3(CC2)CNC(=O)c2cccc(c2)S(=O)(=O)Nc2nc(cc(-c4c(C)cccc4C)n2)OC3)ccc1F [Compound 437],,,++ (++ is 30-60%),3 to 30 µM,
Cc1cccc(C)c1-c1cc2nc(n1)NS(=O)(=O)c1cccc(c1)C(=O)NC(C(=O)NC1CCCCC1)CO2 (stereo not drawn) [Compound 237],+ (+ is <30%),,,,
CCC[C@H](NC(=O)OC(C)(C)C)C(=O)N1CCC2(CC1)CNC(=O)c1cccc(c1)S(=O)(=O)Nc1nc(cc(-c3c(C)cccc3C)n1)OC2 [Compound 469],,,++ (++ is 30-60%),3 to 30 µM,
CCC(CC)(CC)c1ccc([C@@H]2CNC(=O)c3cccc(c3)S(=O)(=O)Nc3nc(cc(-c4c(C)cccc4C)n3)O2)cc1 [Compound 258],,,,,Ent. A Max Activity (Table 9): +++ (+++ is >60%); EC50 (Table 9): < 1 µM
